{
  "source": "patent US9675590B2",
  "about": "“Methods and pharmaceutical compositions for the treatment of myelodysplastic syndromes” (INSERM (INSTITUT NATIONAL DE LA SANTÉ ET DE LA RECHERCHE …, priority 2014, dated 2017)",
  "key": {"HSP70 [1]": {"system": "HSP70", "assay": "HSP70 nuclear localization in myelodysplastic syndrome CD36+ D8 cells", "format": "cell-based, human", "settings": "100 nM, after 72 h of treatment, compared to non treated cells", "procedure": "(§1) 5.10^4 cells were spin on slides, acetone fixated, hydrated with cold 1×PBS 1% BSA for 30 minutes, treated with formaldehyde for 15 min (Sigma), then with methanol (Prolabo) for 10 minutes at room temperature. Cells were then permeabilized with 1×PBS 0.2% triton X100 (Sigma) for 10 min at 4° C., washed and incubated in 10% BSA for 30 minutes. They were then sequentially incubated with antibodies diluted in 1×PBS 1% BSA 0.1% tween (Sigma). Nuclei were stained with DAPI and slides were examined with a confocal laser microscope (LSM 700 Carl Zeiss)."}, "CD36+ D6": {"system": "CD36+ D6", "assay": "Cell death of CD36+ D6 cells during EPO starvation", "format": "cell-based, human", "settings": "EPO starvation during 20 h", "procedure": "(§2) Umbilical cord blood units from normal full-term deliveries were obtained, after informed mother's consent, from the Obstetrics Unit of Hôpital Necker-Enfants Malades. CD36+ erythroid progenitors, generated from 7 days IL-6+IL3+SCF-cultured CD34 progenitors isolated from cord blood (Miltenyi CD34 Progenitor Cell Isolation Kit), were cultured in the presence of IL3+SCF+Epo in IMDM (Gibco cell culture) supplemented with 15% BIT 9500 (Stem Cell Technologies)."}, "CD36+ D8 cells": {"system": "CD36+ D8 cells", "assay": "Erythroid maturation of CD36+ D8 cells (MGG observations)", "format": "cell-based, human", "settings": "100 nM, 333 nM and 1000 nM, after 72 h of treatment, compared to non treated cells"}, "HSP70 [2]": {"system": "HSP70", "assay": "HSP70 nuclear retention in CD36+ D6 cells under EPO starvation", "format": "cell-based, human", "settings": "CD36+ D6 from cord blood, after 20 h of treatment", "procedure": "as §2, §1"}, "[3]": {"system": "CD36+ erythroid progenitors from cord blood", "assay": "Toxicity of KPT on CD36+ erythroid progenitors with normal EPO", "format": "cell-based, human", "settings": "cord blood CD36+ at day 6 (D6) of culture; 33 nM, 100 nM, 333 nM and 1000 nM; normal concentrations of EPO; until 20 h of treatment", "procedure": "as §2"}, "HSP70 [4]": {"system": "HSP70", "settings": "erythroid precursor cells; cited from earlier work"}},
  "note": "Where two headings read alike, the source gives them in different places.",
  "data": [
    {"compound": "FC(F)(F)c1cc(-c2ncn(/C=C\\c3nnco3)n2)cc(C(F)(F)F)c1", "note": "[KPT]", "values": [
      {"measurement": "HSP70 nuclear localization", "setting": "HSP70 [1]", "value": "induces HSP70 nuclear localization"},
      {"measurement": "decrease of cell death compared to the absence of KPT treatment", "setting": "CD36+ D6; 100 nM", "value": 49, "unit": "%"},
      {"measurement": "decrease of cell death compared to the absence of KPT treatment", "setting": "CD36+ D6; 333 nM", "value": 39, "unit": "%"},
      {"measurement": "maturation index (mature*100/polychromatic)", "setting": "CD36+ D8 cells", "value": "increases"},
      {"measurement": "number of mature cells", "setting": "CD36+ D8 cells", "value": "increases the number of mature cells"},
      {"measurement": "HSP70 nuclear retention", "setting": "HSP70 [2]", "value": "induces HSP70 nuclear retention"},
      {"measurement": "toxicity for CD36+ erythroid progenitors", "setting": "[3]", "value": "not toxic"}
    ]},
    {"compound": "CCC(=C/[C@H](C)C/C=C/C(C)=C/[C@@H](C)C(=O)[C@@H](C)[C@H](O)[C@@H](C)C/C(C)=C/C(=O)O)/C=C/[C@@H]1OC(=O)C=C[C@@H]1C", "note": "[Leptomycin B]", "values": [
      {"measurement": "HSP70 nuclear retention", "setting": "HSP70 [4]", "value": "induces HSP70 nuclear retention"}
    ]}
  ]
}
